Laboratory results from publication PMC9516332 (Frontiers in Oncology, 2022).
Read-outs that look alike come from different tables or passages of the source.

Tests used:
Assay in all cases: Kinase panel profiling at 1 µmol/L (MSA or IMAP), percentage inhibition
Type in all cases: biochemical
[1] = target: panel of 255 wild-type kinases (Homo sapiens, UniProt P19784); conditions: read-out: %-inhibition at 1 µmol/L, CK2α2/β
[2] = target: panel of 255 wild-type kinases (Homo sapiens, UniProt P28482); conditions: read-out: %-inhibition at 1 µmol/L, Erk2
[3] = target: T1, panel of 255 wild-type kinases (Homo sapiens, UniProt P36888); conditions: read-out: %-inhibition at 1 µmol/L, FLT3
T1 sequence (P36888 27-993): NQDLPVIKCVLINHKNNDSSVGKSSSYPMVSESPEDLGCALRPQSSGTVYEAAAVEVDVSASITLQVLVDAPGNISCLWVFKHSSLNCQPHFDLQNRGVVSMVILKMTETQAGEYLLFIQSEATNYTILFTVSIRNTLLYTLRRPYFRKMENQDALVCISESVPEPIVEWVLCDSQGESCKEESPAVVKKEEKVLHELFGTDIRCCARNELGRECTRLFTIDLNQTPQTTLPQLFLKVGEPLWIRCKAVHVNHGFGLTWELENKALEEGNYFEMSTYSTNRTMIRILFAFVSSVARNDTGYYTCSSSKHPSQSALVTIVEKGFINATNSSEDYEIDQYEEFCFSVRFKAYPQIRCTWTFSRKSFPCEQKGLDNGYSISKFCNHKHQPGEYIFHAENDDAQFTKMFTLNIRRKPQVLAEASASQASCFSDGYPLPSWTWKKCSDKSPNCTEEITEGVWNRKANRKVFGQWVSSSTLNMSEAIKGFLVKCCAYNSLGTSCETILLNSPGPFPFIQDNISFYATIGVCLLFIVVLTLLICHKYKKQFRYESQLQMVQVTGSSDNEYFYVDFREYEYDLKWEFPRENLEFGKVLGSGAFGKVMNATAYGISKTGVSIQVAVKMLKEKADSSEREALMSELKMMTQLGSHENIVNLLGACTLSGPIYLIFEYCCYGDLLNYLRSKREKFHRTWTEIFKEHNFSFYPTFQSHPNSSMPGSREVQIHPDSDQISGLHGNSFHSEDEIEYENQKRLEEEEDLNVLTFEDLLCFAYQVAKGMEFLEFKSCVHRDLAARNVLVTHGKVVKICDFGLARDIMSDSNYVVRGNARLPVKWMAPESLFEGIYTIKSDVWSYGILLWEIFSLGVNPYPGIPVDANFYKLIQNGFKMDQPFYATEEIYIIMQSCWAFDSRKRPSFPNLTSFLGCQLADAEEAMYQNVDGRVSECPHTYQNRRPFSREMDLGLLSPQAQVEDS

[4] = target: panel of 255 wild-type kinases (Homo sapiens, UniProt P50750); conditions: read-out: %-inhibition CDK9/CycT1
[5] = target: panel of 255 wild-type kinases (Homo sapiens, UniProt P51957); conditions: read-out: %-inhibition, NEK4
[6] = target: panel of 255 wild-type kinases (Homo sapiens, UniProt Q14012); conditions: read-out: %-inhibition CaMK1α
[7] = target: T2, panel of 255 wild-type kinases (Homo sapiens, UniProt Q96L34); conditions: read-out: %-inhibition, MARK4
T2 sequence (Q96L34 1-752): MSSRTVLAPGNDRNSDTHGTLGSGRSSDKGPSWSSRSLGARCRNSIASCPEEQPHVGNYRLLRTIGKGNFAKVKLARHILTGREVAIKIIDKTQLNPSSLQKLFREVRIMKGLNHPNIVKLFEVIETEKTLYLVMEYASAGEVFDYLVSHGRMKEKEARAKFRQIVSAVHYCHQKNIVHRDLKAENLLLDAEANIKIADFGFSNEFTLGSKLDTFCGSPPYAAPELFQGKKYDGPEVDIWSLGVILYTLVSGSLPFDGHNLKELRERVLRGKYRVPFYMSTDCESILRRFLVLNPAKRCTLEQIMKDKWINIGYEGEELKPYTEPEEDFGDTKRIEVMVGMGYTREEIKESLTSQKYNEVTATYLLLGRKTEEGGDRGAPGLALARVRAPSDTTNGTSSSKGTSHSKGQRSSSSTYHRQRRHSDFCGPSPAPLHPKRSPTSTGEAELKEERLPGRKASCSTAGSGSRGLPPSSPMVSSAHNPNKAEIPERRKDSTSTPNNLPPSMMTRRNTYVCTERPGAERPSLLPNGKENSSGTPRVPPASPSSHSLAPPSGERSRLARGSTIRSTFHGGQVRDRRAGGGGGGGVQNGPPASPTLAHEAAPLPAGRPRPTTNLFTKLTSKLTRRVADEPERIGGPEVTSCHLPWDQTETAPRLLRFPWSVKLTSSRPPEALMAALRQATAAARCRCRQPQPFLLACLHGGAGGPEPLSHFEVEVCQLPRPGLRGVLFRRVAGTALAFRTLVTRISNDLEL

[8] = target: T3, panel of 255 wild-type kinases (Homo sapiens, UniProt Q9H093); conditions: read-out: %-inhibition, NuaK2
T3 sequence (Q9H093 1-628): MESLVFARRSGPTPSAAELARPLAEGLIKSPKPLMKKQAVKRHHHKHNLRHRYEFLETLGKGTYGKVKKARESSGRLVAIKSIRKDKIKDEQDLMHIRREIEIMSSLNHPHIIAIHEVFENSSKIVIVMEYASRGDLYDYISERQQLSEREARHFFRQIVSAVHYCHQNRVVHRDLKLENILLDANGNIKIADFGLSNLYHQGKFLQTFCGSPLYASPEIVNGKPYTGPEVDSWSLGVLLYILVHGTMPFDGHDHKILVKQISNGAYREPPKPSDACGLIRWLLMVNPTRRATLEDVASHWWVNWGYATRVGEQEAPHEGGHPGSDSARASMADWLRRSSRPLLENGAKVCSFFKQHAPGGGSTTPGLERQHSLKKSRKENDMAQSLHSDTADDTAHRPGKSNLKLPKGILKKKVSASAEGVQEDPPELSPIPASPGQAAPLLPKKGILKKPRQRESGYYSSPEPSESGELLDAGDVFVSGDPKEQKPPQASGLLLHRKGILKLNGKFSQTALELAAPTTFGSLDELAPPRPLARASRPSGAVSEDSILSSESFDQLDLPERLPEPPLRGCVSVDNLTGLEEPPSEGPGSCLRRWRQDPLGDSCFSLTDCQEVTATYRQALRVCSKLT

[9] = kinase CK2α2/β, 1 µmol/L single concentration
[10] = kinase Erk2, 1 µmol/L single concentration
[11] = kinase FLT3, 1 µmol/L single concentration
[12] = CDK9/CycT1 kinase assay, 1 µmol/L single concentration
[13] = NEK4, 1 µmol/L single concentration
[14] = CaMK1α kinase assay, 1 µmol/L single concentration
[15] = MARK4, 1 µmol/L single concentration
[16] = NuaK2, 1 µmol/L single concentration

SMILES	inhibition at 1 µM [1, 9] [%]	inhibition at 1 µM [2, 10] [%]	inhibition at 1 µM [3, 11] [%]	inhibition at 1 µM [4, 12] [%]	inhibition at 1 µM [5, 13] [%]	inhibition at 1 µM [6, 14] [%]	inhibition at 1 µM [7, 15] [%]	inhibition at 1 µM [8, 16] [%]	inhibition at 1 µM [1] [%]	inhibition at 1 µM [2] [%]	inhibition at 1 µM [3] [%]	inhibition at 1 µM [4] [%]	inhibition at 1 µM [5] [%]	inhibition at 1 µM [6] [%]	inhibition at 1 µM [7] [%]	inhibition at 1 µM [8] [%]
Cc1nc(NC(=O)N2CCC[C@H]2C(N)=O)sc1-c1ccnc(C(C)(C)C(F)(F)F)c1 [alpelisib]	-1.53	-0.753	6	-0.929	-3	-10	0.414	6	–	–	–	–	–	–	–	–
Cn1cc(-c2cc3c(N4CCN(c5ncc([C@@](C)(N)c6ccc(F)cc6)cn5)CC4)ncnn3c2)cn1 [avapritinib]	-1.79	5	100	49	12	-9	-5.63	68	–	–	–	–	–	–	–	–
Cn1cnc2c(F)c(Nc3ccc(Br)cc3F)c(C(=O)NOCCO)cc21 [binimetinib]	-1.89	0.0301	12	-1.47	-1.67	-5	-4	0.626	–	–	–	–	–	–	–	–
CNC(=O)c1ccc(-c2cnc3ncc(Cc4ccc5ncccc5c4)n3n2)cc1F [capmatinib]	–	–	–	–	–	–	–	–	-0.77	1.14	50	-0.278	2	-9	6	-1
COc1cc2ncnc(Nc3ccc(F)c(Cl)c3)c2cc1NC(=O)/C=C/CN1CCCCC1 [dacomitinib]	1.11	-1.48	56	3.6	-2.15	-7	4.31	2	–	–	–	–	–	–	–	–
C[C@H](Nc1ncnc2nc[nH]c12)c1cc2cccc(Cl)c2c(=O)n1-c1ccccc1 [duvelisib]	-1.47	0.0602	10	-0.441	-2.34	-5.33	4.7	3.49	–	–	–	–	–	–	–	–
COC(=O)N[C@@H](C)CNc1nccc(-c2cn(C(C)C)nc2-c2cc(Cl)cc(NS(C)(=O)=O)c2F)n1 [encorafenib]	-3.75	2.55	9	-1.11	4.44	2.72	2.32	3.35	–	–	–	–	–	–	–	–
CN1CCN(c2ccc(C(=O)Nc3n[nH]c4ccc(Cc5cc(F)cc(F)c5)cc34)c(NC3CCOCC3)c2)CC1 [entrectinib]	2	-0.572	–	1.79	1.25	-5.68	15	95	–	–	–	–	–	–	–	–
CCc1nc(C(N)=O)c(Nc2ccc(N3CCC(N4CCN(C)CC4)CC3)c(OC)c2)nc1NC1CCOCC1 [gilteritinib]	23	-1.15	99	32	50	41	53	73	–	–	–	–	–	–	–	–
CCN1CCN(c2ccc(Nc3cc(N(C)C(=O)Nc4c(Cl)c(OC)cc(OC)c4Cl)ncn3)cc2)CC1 [infigratinib]	-2.17	-4	–	-0.383	13	-22	-3	9	–	–	–	–	–	–	–	–
O=C(Nc1cnn2ccc(N3CCC[C@@H]3c3cc(F)ccc3F)nc12)N1CC[C@H](O)C1 [larotrectinib]	-3	-6	6	-0.399	0.695	-1.63	-6.42	0.385	–	–	–	–	–	–	–	–
